Patent US10018630B2, “Cancer stem cell isolation” (CHUGAI SEIYAKU KABUSHIKI KAISHA, priority 2011, dated 2018)

Legend:
Lgr5-positive colon CSCs [1] = experiment: Cell proliferation / chemosensitivity assay (Cell Counting Kit-8); assay type: cell-based, human
Experimental: (§1) Tissues of xenograft were cut with a razor blade in order to prepare single cancer cell suspensions. After the suspensions were incubated at 37° C. for 3 hours in DPBS containing collagenase/dispase (Roche) and DNaseI (Roche), the suspensions were filtered through 40-μm Cell Strainers (BD Biosciences). The cells were suspended in the lysis buffer (BD Biosciences) to remove erythrocytes. The prepared xenograft-derived cells were cultured under 5% CO2 atmosphere at 37° C. in DMEM/F12 (Invitrogen) containing N-2 Supplement (Invitrogen), 20 ng/ml human EGF (Invitrogen), 10 ng/ml human basic fibroblast growth factor (Sigma), 4 μg/ml heparin (Sigma), 4 mg/ml BSA (Invitrogen), 20 μg/ml human insulin zinc solution (Invitrogen), and 2.9 mg/ml glucose (Sigma) (Todaro M, et al. (2007) Cell Stem Cell 1: 389-402). Adherent and floating CSCs were cultured using conventional polystyrene-treated cell culture flasks (BD Biosciences) and Ultra-low attachment cell culture flasks (Corning), respectively.
(§2) Floating and adherent cells were plated at about 100 and 1×10^4 cells/well in 96-well plates, respectively. On days 0 and 3, viable cell counts were determined by the Cell Counting Kit-8 Assay (Doujindo) according to the manufacturer's protocol. Average absorbance on day 0 was taken as 100%. For chemosensitivity assay, floating and adherent cells were plated at about 100 and 1×10^4 cells/well in 96-well plates, respectively. […] After three days of culture in the presence of the agents, the Cell Counting Kit-8 was added to the cells. The average absorbance of cells exposed to DMSO or medium alone was taken as 100%. All experiments were performed in triplicate.

Lgr5-negative colon CSCs = experiment: as above; assay type: cell-based, human; details: for proliferation and survival of Lgr5-negative colon CSCs: 10 μg/ml, three days; for resistance of Lgr5-negative CSCs (percentage of viable cells relative to non-treated control): PLR59 and PLR123, cultured three days at each concentration (FIG. 45)
Experimental: as §1, §2

Lgr5-positive colon CSCs [2] = experiment: Transition of Lgr5-positive colon CSCs to the Lgr5-negative state after drug exposure (flow cytometry, immunostaining, qPCR); assay type: cell-based, human; details: for Lgr5 expression by IHC (antibody 2L36): adherent condition, 24 hours with drug, then 48 hours without drug; for Lgr5 state of drug-resistant cells: three-day exposure of Lgr5-positive colon CSCs
Experimental: Colon CSCs were incubated with mouse anti-human Lgr5 antibody (2T15E-2) and then with […] rat anti-mouse IgG antibody (Invitrogen) to stain Lgr5. The aldehyde dehydrogenase activity was measured using the AldeFluor Kit (Stemcell Technologies). Mouse cells were discriminated from human colon CSCs by staining with anti-mouse MHC class I antibody (Abcam), and PE- or APC-labeled goat […] antibody (BioLegend). Dead cells were also removed using the 7-AAD Viability Dye (Beckman Coulter).
Total RNAs were isolated using the RNeasy Mini Kit including DNAase treatment (Qiagen). cDNAs were synthesized using the First-Strand cDNA Synthesis Kit (SABiosciences). Quantitative real-time PCR (QRT-PCR) analysis was performed with the SYBR Green/Rox qPCR (SABiosciences) using the Mx3005P Real-Time PCR System (Stratagene). The fold induction value was calculated according to the 2-ΔΔCt method. GAPDH and ACTB were used as a reference. All experiments were performed in triplicate.
For immunofluorescent cytochemistry, cells were fixed with 4% paraformaldehyde and methanol, and incubated with a mouse anti-human E-cadherin antibody (Abcam), rabbit anti-human Snail antibody (Abcam), or rabbit anti-human β-catenin antibody (Sigma)). Then, the cells were visualized using the AlexaFluor 488-labeled goat anti-mouse IgG antibody or goat anti-rabbit IgG antibody. For immunofluorescent cytochemistry, the fixed cells and thin sections derived from paraffin blocks of xenograft tumors were incubated with a mouse anti-human Lgr5 antibody (2U2E-2) or rabbit anti-human Snail antibody (Abcam), rabbit anti-human HLA-DMA antibody (Sigma), rabbit anti-TMEM173 antibody (Abcam), rabbit anti-human ZMAT3 antibody (Abcam), or rabbit anti-human GPR110 antibody (Abcam). After incubation with the primary antibody, Lgr5 protein was detected with a goat anti-mouse antibody conjugated with polymer-HRP (DAKO) and visualized with AlexaFluor 488-labeled tyramide (Invitrogen), while Snail, HLA-DMA, and TMEM173 proteins were detected with a biotinylated goat anti-rabbit antibody (VECTOR) and visualized with AlexaFluor 568-labeled streptavidin (Invitrogen). These cells and samples were also stained with DAPI (Invitrogen). ZMAT3 and GPR110 proteins were detected with a goat anti-rabbit antibody conjugated with polymer HRP (DAKO) and visualized with diaminobenzidine. The cells and samples were stained with Mayer's hematoxylin (Muto Pure Chemicals Co.).
In addition, the present inventors carried out examinations to assess whether Lgr5-negative colon CSCs undergo a transition into an Lgr5-positive state. […] On the other hand, when Lgr5-positive adherent colon CSCs were cultured in an ultra low adherent plate, the present inventors observed that some of the cells halted their growth and formed a spheroid-like structure and that the Lgr5 mRNA level was very low (FIGS. 12 and 33). The transition from the Lgr5-positive to Lgr5-negative state (and the reverse) was also confirmed by observations using a single cell in culture. […] When single Lgr5-negative cells prepared via irinotecan treatment were individually cultured in a multi-well plate in the absence of irinotecan, 19 to 43% of the cells underwent a transition into the Lgr5-positive state within four days (FIG. 47 and Table 5).
Lgr5-positive cells were incubated under an adherent condition in the presence of 5-FU or oxaliplatin for 24 hours, and then cultured in the absence of the drug for 48 hours. The cells were analyzed for the expression of Lgr5 by IHC using an anti-Lgr5 antibody (antibody 2L36). […] Next, Lgr5-negative cells sorted using MoFlo XDP cell sorter and treated with 5-FU or oxaliplatin were cultured for four days in the absence of the drug. The cells were analyzed for Lgr5 expression.

[3] = test system: tumors derived from LGR5-positive CSCs (PLR123); experiment: Irinotecan treatment of NOG mice bearing tumors derived from Lgr5-positive CSCs; assay type: in vivo
Experimental: Mice bearing tumors derived from LGR5-positive CSCs (PLR123) were treated with irinotecan, and their tumors were observed. Irinotecan or vehicle was administered to mice at days 12, 15, and 18 after tumor grafting. Scale bar represents 25 μm.
FIG. 53 Irinotecan was administered at a dose of 120 mg/kg/day to NOG mice at days 12, 15, and 18 after grafting tumors derived from LGR5-positive CSCs (PLR123). This figure is a graph showing tumor volumes in control mice administered with vehicle (closed diamond) and mice administered with irinotecan (closed square or triangle). Each value represents mean±standard deviation.
FIG. 54 is a graph showing the numbers of Lgr5-positive and HLA-DMA-positive cells in xenograft tumor tissues. Thin sections of tissues were treated with Lgr5 antibody and HLA-DMA antibody, and then the numbers of Lgr5-positive and HLA-DMA-positive cells were counted. Values represent the total numbers of cells counted for respective groups (n=3).
To probe the possibility of in vivo transition to a growth inhibitor-resistant state, irinotecan was administered at the maximum tolerated dose (MTD) (120 mg/kg) into the peritoneal cavities of NOG mice bearing tumors derived from Lgr5-positive CSCs. […] By contrast, in vehicle-treated control mice, about one third of cancer cells were positive for Lgr5 in both ductal and budding areas (FIG. 52). Both Lgr5-positive cells and HLA-DMA-positive and Lgr5-negative cells were positive for EREG, and were identified to be CSCs (FIG. 52). After irinotecan treatment, Lgr5-positive cells appeared again (FIG. 52). Furthermore, xenografts were excised from mice on day 21 after transplantation of irinotecan-treated or non-treated Lgr5-positive cells. Sections from the xenografts were double-stained with an anti-Ki67 antibody and an anti-Lgr5 antibody or an anti-HLA-DMA antibody. The result of double staining for Ki67 and Lgr5 or HLA-DMA, which is a marker for Lgr5-negative cells, also confirmed a correlation between Lgr5 expression and Ki67 staining in xenografts, similarly to the observation using in vitro cultured cells. Specifically, the Lgr5-positive cells were positive for Ki67, while the Lgr5-negative/HLA-DMA-positive cells were negative for Ki67 (FIG. 65).

[4] = 120 mg/kg into the peritoneal cavity

## O=c1[nH]cc(F)c(=O)[nH]1 [5-FU, fluorouracil]
Lgr5-positive colon CSCs [1]; 10 μg/ml, three days
  proliferation of Lgr5-positive colon CSCs: significantly inhibited the proliferation
Lgr5-negative colon CSCs
  proliferation and survival of Lgr5-negative colon CSCs: did not affect the proliferation and survival
  resistance of Lgr5-negative CSCs (percentage of viable cells relative to non-treated control): fully resistant
Lgr5-positive colon CSCs [2]
  Lgr5 expression by IHC (antibody 2L36): most of the Lgr5-positive cells underwent transition into the Lgr5-negative state
  Lgr5 state of drug-resistant cells: negative for Lgr5

## Cc1cc([N+](=O)[O-])ccc1NS(=O)(=O)c1cc(Cl)ccc1Cl [FH535]
Lgr5-positive colon CSCs [1]; 50 μM, three days of culture
  proliferation of Lgr5-positive colon CSCs: significantly reduced the proliferation
Lgr5-negative colon CSCs; 50 μM, three days of culture
  proliferation of Lgr5-negative colon CSCs: had no effect on the proliferation

## COc1cc(O)cc(O)c1C(=O)/C=C/c1ccccc1 [cardamonin]
Lgr5-positive colon CSCs [1]; 50 μM, three days of culture, Lgr5-positive colon CSCs, relative to DMSO alone
  viable cell count: 70%
Lgr5-negative colon CSCs; 50 μM, three days of culture, Lgr5-negative colon CSCs, relative to DMSO alone
  viable cell count: about 50%

## CCc1c2c(nc3ccc(OC(=O)N4CCC(N5CCCCC5)CC4)cc13)-c1cc3c(c(=O)n1C2)COC(=O)[C@]3(O)CC [irinotecan]
Lgr5-positive colon CSCs [1]; 10 μg/ml, three days
  proliferation of Lgr5-positive colon CSCs: significantly inhibited the proliferation
Lgr5-negative colon CSCs
  proliferation and survival of Lgr5-negative colon CSCs: did not affect the proliferation and survival
  resistance of Lgr5-negative CSCs (percentage of viable cells relative to non-treated control): fully resistant
[3]; 120 mg/kg (MTD) into the peritoneal cavity, days 12, 15 and 18 after grafting
  tumor growth: inhibited almost completely
[3]; [4]
  Lgr5-positive cells in tumor: dramatic decrease
  ductal structures of tumor: collapsed extensively
  number of Lgr5-negative and HLA-DMA-positive cells in tumor: increased significantly
Lgr5-positive colon CSCs [2]; Lgr-negative cells after irinotecan treatment (FIG. 43)
  level of Lgr5 mRNA (quantitative real-time PCR): almost undetectable
Lgr5-positive colon CSCs [2]; PLR123, before vs after irinotecan treatment (FIG. 42)
  fluorescence representing Lgr5 positivity: disappeared after the treatment
Lgr5-positive colon CSCs [2]; after irinotecan treatment
  ALDH activity: reduced
Lgr5-positive colon CSCs [2]; multi-well plate, within three days after irinotecan treatment
  Lgr5 state of single Lgr5-positive cells cultured individually: underwent a transition into the Lgr5-negative state
Lgr5-positive colon CSCs [2]
  Lgr5 state of drug-resistant cells: negative for Lgr5

## O=C1[O][Pt]2([NH][C@@H]3CCCC[C@H]3[NH]2)[O]C1=O [oxaliplatin]
Lgr5-positive colon CSCs [2]
  Lgr5 expression by IHC (antibody 2L36): most of the Lgr5-positive cells underwent transition into the Lgr5-negative state
